Assay results: patent US20080194652A1 (priority 2004, published 2008)

How the values were obtained:
P. falciparum strain W2 = assay: 72 hour microplate growth assay, SybrGreen I-based fluorescence readout, drug-resistance reversal; type: cell-based, Plasmodium falciparum; settings: for decrease of CQ EC50 (chloroquine resistance reversal): with chloroquine, equimolar comparison of (+) and (+/−) CP; for resistance reversal activity inferred from comparison of (+/−) with (+): indirect assessment, chloroquine, chloroquine and quinine
Experimental: (§1) Results were determined by SybrGreen I-based fluorescence assay.
(§2) This indirect assessment was required because only the antihistaminically-active (+) and (+/−) forms are available.

P. falciparum strain 7G8 = assay: as above; type: cell-based, Plasmodium falciparum; settings: for decrease of CQ EC50 (chloroquine resistance reversal): with chloroquine, equimolar comparison of (+) and (+/−) CP; for resistance reversal activity inferred from comparison of (+/−) with (+): indirect assessment, chloroquine, chloroquine and quinine
Experimental: as §1, §2

Plasmodium falciparum = assay: in vitro drug-resistance reversal, strain not stated; type: cell-based
[1] = test system: cardiac electrophysiology; settings: cited from earlier work
[2] = test system: CQ-resistant P. falciparum infection; settings: cited from earlier work
resistant P. falciparum = settings: literature; cited from earlier work
[3] = in vivo; cited from earlier work
rodent malaria = settings: in vivo; cited from earlier work
[4] = listed as (+/−)chlorpheniramine
[5] = with quinine, equimolar comparison

SMILES: CN(C)CC[C@@H](c1ccc(Cl)cc1)c1ccccn1 [(+) CP, (+) chlorpheniramine]
- decrease of CQ EC50 (chloroquine resistance reversal) (P. falciparum strain W2): active
- decrease of CQ EC50 (chloroquine resistance reversal) (P. falciparum strain 7G8): active

SMILES: CN(C)CCC(c1ccccc1)c1ccccn1 (stereo not shown) [pheniramine]
- chloroquine resistance reversal (Plasmodium falciparum; with chloroquine, in vitro): chloroquine resistance reversal agents

SMILES: CN(C)CCC(c1ccc(F)cc1)c1ccccn1 (stereo not shown) [flupheniramine]
- chloroquine resistance reversal (Plasmodium falciparum; with chloroquine, in vitro): chloroquine resistance reversal agents

SMILES: CN(C)CCC(c1ccc(Cl)cc1)c1ccccn1 (single isomer, unassigned; (-)) [(−) CP, (−) chlorpheniramine]
- change of cardiac electrophysiology [1]: only at in vitro concentrations far above those needed to restore chloroquine sensitivity
- resistance reversal activity inferred from comparison of (+/−) with (+) (P. falciparum strain W2): active
- resistance reversal activity inferred from comparison of (+/−) with (+) (P. falciparum strain W2; listed as (−)chlorpheniramine): must be active
- resistance reversal activity inferred from comparison of (+/−) with (+) (P. falciparum strain 7G8): active
- resistance reversal activity inferred from comparison of (+/−) with (+) (P. falciparum strain 7G8; listed as (−)chlorpheniramine): must be active
- chloroquine resistance reversal (Plasmodium falciparum; inferred for the (−) isomer): reverses
- quinine resistance reversal (Plasmodium falciparum; inferred for the (−) isomer): reverses

SMILES: CN(C)CCC(c1ccc(Br)cc1)c1ccccn1 (stereo not shown) [brompheniramine]
- chloroquine resistance reversal (Plasmodium falciparum; with chloroquine, in vitro): chloroquine resistance reversal agents

SMILES: CNCCCN1c2ccccc2CCc2ccccc21 [desipramine]
- clinical outcome / cure rates ([2]; co-administered with chloroquine, clinical trials): ineffective
- chloroquine resistance reversal in vitro (resistant P. falciparum): reversed chloroquine resistance
- chloroquine resistance reversal in primate animal trial [3]: reversed chloroquine resistance

SMILES: COc1ccc(CCN(C)CCCC(C#N)(c2ccc(OC)c(OC)c2)C(C)C)cc1OC (stereo not shown) [verapamil]
- chloroquine resistance reversal in vitro (resistant P. falciparum): partially restored chloroquine sensitivity

SMILES: CN(C)CCC(c1ccc(Cl)cc1)c1ccccn1 (racemic) [(+/−) CP, chlorpheniramine]
- decrease of CQ EC50 (chloroquine resistance reversal) (P. falciparum strain W2): at least equivalent to (+) CP
- decrease of CQ EC50 (chloroquine resistance reversal) (P. falciparum strain W2; [4]): equivalent or slightly superior to the (+) isomer
- quinine resistance reversal (P. falciparum strain W2; [5]): equivalent or slightly superior to the (+) isomer
- decrease of CQ EC50 (chloroquine resistance reversal) (P. falciparum strain 7G8): at least equivalent to (+) CP
- decrease of CQ EC50 (chloroquine resistance reversal) (P. falciparum strain 7G8; [4]): equivalent or slightly superior to the (+) isomer
- quinine resistance reversal (P. falciparum strain 7G8; [5]): equivalent or slightly superior to the (+) isomer
- drowsiness in clinical trials ([2]; in vivo): drowsiness was consistently found
- effectiveness in rodent malaria models (rodent malaria): demonstrated effectiveness
- chloroquine resistance reversal in vitro (resistant P. falciparum): demonstrated effectiveness
